Target: Human PDE10A1 (Homo sapiens, UniProt Q9Y233)
Test: hPDE10A1 enzyme inhibition ([3H]-cAMP hydrolysis, scintillation counting)
Format: biochemical
Conditions: Human PDE10A1, [3H]-cAMP substrate, 20 minutes at 37° C.; read-out: hPDE10A1 IC50 Band
Experimental: 50 μl samples of serially diluted Human PDE10A1 enzyme were incubated with 50 μl of [^3H]-cAMP for 20 minutes (at 37° C.). Reactions were carried out in Greiner 96 deep well 1 ml master-block. The enzyme was diluted in 20 mM Tris HCl pH7.4 and [^3H]-cAMP was diluted in 10 mM MgCl2, 40 mM Tris.HCl pH 7.4. The reaction was terminated by denaturing the PDE enzyme (at 70° C.) after which [^3H]-5′-AMP was converted to [^3H]-adenosine by adding 25 μl snake venom nucleotidase and incubating for 10 minutes (at 37° C.). Adenosine, being neutral, was separated from charged cAMP or AMP by the addition of 200 μl Dowex resin. Samples were shaken for 20 minutes then centrifuged for 3 minutes at 2,500 r.p.m. 50 μl of supernatant was removed and added to 200 μl of MicroScint-20 in white plates (Greiner 96-well Optiplate) and shaken for 30 minutes before reading on Perkin Elmer TopCount Scintillation Counter.
To check inhibition profile 11 μl of serially diluted inhibitor was added to 50 μl of [^3H]-cAMP and 50 μl of diluted Human PDE10A1 and assay was carried out as in the enzyme activity assay. Data was analysed using Prism software (GraphPad Inc).

Human PDE10A1, sequence (Q9Y233 1-779 isoform Q9Y233-1): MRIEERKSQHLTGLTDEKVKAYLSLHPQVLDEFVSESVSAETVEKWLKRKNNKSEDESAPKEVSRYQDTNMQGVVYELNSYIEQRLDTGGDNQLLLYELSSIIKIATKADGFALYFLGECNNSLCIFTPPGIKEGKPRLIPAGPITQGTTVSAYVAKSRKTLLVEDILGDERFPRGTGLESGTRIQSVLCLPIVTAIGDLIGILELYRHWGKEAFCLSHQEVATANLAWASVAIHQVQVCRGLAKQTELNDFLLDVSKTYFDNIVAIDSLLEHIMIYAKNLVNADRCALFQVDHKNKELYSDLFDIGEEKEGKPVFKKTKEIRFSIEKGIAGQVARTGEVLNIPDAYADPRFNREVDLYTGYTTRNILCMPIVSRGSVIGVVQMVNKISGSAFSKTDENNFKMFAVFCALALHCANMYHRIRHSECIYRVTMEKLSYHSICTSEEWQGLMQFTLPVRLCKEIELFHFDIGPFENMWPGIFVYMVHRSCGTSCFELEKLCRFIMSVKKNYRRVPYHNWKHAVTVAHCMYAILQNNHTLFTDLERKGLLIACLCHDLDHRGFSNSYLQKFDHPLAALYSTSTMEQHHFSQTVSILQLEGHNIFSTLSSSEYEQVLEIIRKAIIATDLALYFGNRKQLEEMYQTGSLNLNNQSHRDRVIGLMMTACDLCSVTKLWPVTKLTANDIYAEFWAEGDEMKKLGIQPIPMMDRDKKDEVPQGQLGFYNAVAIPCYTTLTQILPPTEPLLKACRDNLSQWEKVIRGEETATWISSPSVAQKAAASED

Question: With COc1ccc(C2=C(c3ccc(OCc4ccc5ccccc5n4)cc3)COC2=O)cc1 [Example 14] as the compound, how does the IC50 read?
Answer: ≤ 0.05 µM

Question: For O=C1OCC(c2ccncc2)=C1c1ccc(OCc2ccc3ccccc3n2)cc1 [Example 37, 4-(Pyridin-4-yl)-3-(4-(quinolin-2-ylmethoxy)phenyl)furan-2(5H)-one], which IC50 is on record?
Answer: ≤ 0.05 µM

Question: Which IC50 does the source give for COc1ccc(C2=C(c3ccc(OCc4ccc5ccccc5n4)cc3)C(=O)OC2)cc1F [Example 53, 4-(3-fluoro-4-methoxyphenyl)-3-(4-(quinolin-2-ylmethoxy)phenyl)furan-2(5H)-one] here?
Answer: ≤ 0.05 µM

Question: Which IC50 does the source give for COc1ccc(C2=C(c3ccc(OCc4ccc5ccccc5n4)cc3)C(=O)OC2)cc1Cl [Example 54, 4-(3-Chloro-4-methoxyphenyl)-3-(4-(quinolin-2-ylmethoxy)phenyl)furan-2(5H)-one] here?
Answer: ≤ 0.05 µM

Question: With COc1ccc(C2=C(c3ccc(OCc4ccc5ccccc5n4)cc3)C(=O)OC2)cc1C#N [Example 55, 2-Methoxy-5-(5-oxo-4-(4-(quinolin-2-ylmethoxy)phenyl)-2,5-dihydrofuran-3-yl)benzonitrile] as the compound, how does the IC50 read?
Answer: ≤ 0.05 µM

Question: With COc1ccc(C2=C(c3ccc(OCc4ccc5ccccc5n4)cc3)C(=O)OC2)cc1 [Example 59, 4-(4-Methoxyphenyl)-3-(4-(quinolin-2-ylmethoxy)phenyl)furan-2(5H)-one] as the compound, how does the IC50 read?
Answer: ≤ 0.05 µM

Question: For CN1CC(c2ccncc2)=C(c2ccc(OCc3ccc4ccccc4n3)cc2)C1=O [Example 94, 1-Methyl-4-(pyridin-4-yl)-3-(4-(quinolin-2-ylmethoxy)phenyl)-1H-pyrrol-2(5H)-one], which IC50 is on record?
Answer: ≤ 0.05 µM

Question: Which IC50 does the source give for COc1ccc(C2=C(c3ccc(OCc4ccc5ccccc5n4)cc3)C(=O)N(C)C2)cc1 [Example 125, 4-(4-Methoxyphenyl)-1-methyl-3-(4-(quinolin-2-ylmethoxy)phenyl)-1H-pyrrol-2(5H)-one] here?
Answer: ≤ 0.05 µM

Question: Which IC50 does the source give for COc1ccc(C2=C(c3ccc(OCc4ccc5ccccc5n4)cc3Cl)COC2=O)cc1 [Example 424, 4-(2-chloro-4-(quinolin-2-ylmethoxy)phenyl)-3-(4-methoxyphenyl)furan-2(5H)-one] here?
Answer: > 0.05 µM

Question: Which IC50 does the source give for O=C1OCC(N2CCOCC2)=C1c1ccc(OCc2ccc3ccccc3n2)cc1 [Example 1085, 4-Morpholino-3-(4-(quinolin-2-ylmethoxy)phenyl)furan-2(5H)-one] here?
Answer: > 0.05 µM

Question: With O=c1o[nH]c(-c2ccncc2)c1-c1ccc(OCc2ccc3ccccc3n2)cc1 [Example 1094, 3-(Pyridin-4-yl)-4-(4-(quinolin-2-ylmethoxy)phenyl)isoxazol-5(2H)-one] as the compound, how does the IC50 read?
Answer: ≤ 0.05 µM

Question: For COc1ccc(C2=C(c3ccc(OCc4cccc(C)n4)cc3)COC2=O)cc1 [Example 1095, 3-(4-methoxyphenyl)-4-(4-((6-methylpyridin-2-yl)methoxy)phenyl)furan-2(5H)-one], which IC50 is on record?
Answer: > 0.05 µM

Question: For O=c1[nH][nH]c(-c2ccncc2)c1-c1ccc(OCc2ccc3ccccc3n2)cc1 [Example 1096, 5-(Pyridin-4-yl)-4-(4-(quinolin-2-ylmethoxy)phenyl)-1H-pyrazol-3(2H)-one], which IC50 is on record?
Answer: > 0.05 µM

Question: With Cn1[nH]c(-c2ccncc2)c(-c2ccc(OCc3ccc4ccccc4n3)cc2)c1=O [Example 1097, 2-Methyl-5-(pyridin-4-yl)-4-(4-(quinolin-2-ylmethoxy)phenyl)-1H-pyrazol-3(2H)-one] as the compound, how does the IC50 read?
Answer: > 0.05 µM

Question: With O=C1OCC(c2cccnc2)=C1c1ccc(OCc2ccc3ccccc3n2)cc1 [Example 1098, 4-(Pyridin-3-yl)-3-(4-(quinolin-2-ylmethoxy)phenyl)furan-2(5H)-one] as the compound, how does the IC50 read?
Answer: > 0.05 µM

Question: Which IC50 does the source give for O=C1OCC(c2ccncc2)=C1c1ccc(OCc2ccc3ccccc3n2)c(Cl)c1 [Example 1099, 3-(3-chloro-4-(quinolin-2-ylmethoxy)phenyl)-4-(pyridin-4-yl)furan-2(5H)-one] here?
Answer: > 0.05 µM

System: apomorphine induced stereotypes
Test: not given
Conditions: rats; cited from earlier work

Question: For COc1ccc(Cc2nccc3cc(OC)c(OC)cc23)cc1OC [papaverine], which apomorphine induced stereotypes is on record?
Answer: reduces

System: rat brain dopamine levels
Test: not given
Conditions: rats; cited from earlier work

Question: For COc1ccc(Cc2nccc3cc(OC)c(OC)cc23)cc1OC [papaverine], which “rat brain dopamine levels” value is on record?
Answer: reduces

System: haloperidol induced catalepsy
Test: not given
Conditions: rats; cited from earlier work

Question: Which haloperidol induced catalepsy does the source give for COc1ccc(Cc2nccc3cc(OC)c(OC)cc23)cc1OC [papaverine] here?
Answer: increases
